Activity calls are given as the source filed them. No cut-off for these calls is given here.
What follows are compounds tested on A549 (assay: Cytotoxicity against human A549 cells assessed as cell growth inhibition at 50 uM incubated for 48 hrs by CCK-8 assay).
Type: functional, cell-based
With `C=C(C)[C@H]1CC[C@@]23CO[C@@]4(O)C(=O)C(C)=CC[C@](C)(C(=O)C[C@@]12O)[C@@]34O` the Activity was “inactive”.
`C=C(C)[C@H]1[C@H](O)C[C@]2(C)[C@@]34CC(=O)[C@@H](C)[C@@H](C[C@]3(C)C(=O)C[C@@]12O)O4` was tested, and the Activity was “inactive”.
With `C=C(C)[C@H]1CC[C@]2(C)[C@@]3(O)CC(=O)C(C)=CC[C@]3(C)C(=O)C[C@@]12O` the Activity was “inactive”.
`C=C(C)[C@H]1CC[C@@]23CO[C@@](O)(C[C@@]12O)[C@@]1(C)C[C@H]2O[C@]13[C@@H](O)C(=O)[C@H]2C` was tested, and the Activity was “inactive”.
For `C=C(C)[C@H]1CC[C@]2(C)[C@@]34C[C@@H](O)[C@@H](C)[C@@H](C[C@]3(C)C(=O)C[C@@]12O)O4`, the Activity was “inactive”.
`C=C(C)[C@H]1CC[C@]2(C)[C@@]34CC(=O)[C@@H](C)[C@@H](C[C@]3(C)C(=O)C[C@@]12O)O4` was tested, and the Activity was “inactive”.

The compounds below were run on Staphylococcus aureus (assay: Antimicrobial activity against Staphylococcus aureus ATCC25923 assessed as inhibition of microbial growth at 50 uM incubated for 24 hrs by microbroth dilution assay).
Type: functional, organism-based
With `C=C(C)[C@H]1CC[C@@]23CO[C@@]4(O)C(=O)C(C)=CC[C@](C)(C(=O)C[C@@]12O)[C@@]34O` the Activity was “inactive”.
In the case of `C=C(C)[C@H]1[C@H](O)C[C@]2(C)[C@@]34CC(=O)[C@@H](C)[C@@H](C[C@]3(C)C(=O)C[C@@]12O)O4`, the Activity is reported as “inactive”.
`C=C(C)[C@H]1CC[C@]2(C)[C@@]3(O)CC(=O)C(C)=CC[C@]3(C)C(=O)C[C@@]12O` was tested, and the Activity was “inactive”.
With `C=C(C)[C@H]1CC[C@@]23CO[C@@](O)(C[C@@]12O)[C@@]1(C)C[C@H]2O[C@]13[C@@H](O)C(=O)[C@H]2C` the Activity was “inactive”.
For `C=C(C)[C@H]1CC[C@]2(C)[C@@]34C[C@@H](O)[C@@H](C)[C@@H](C[C@]3(C)C(=O)C[C@@]12O)O4`, the Activity was “inactive”.
In the case of `C=C(C)[C@H]1CC[C@]2(C)[C@@]34CC(=O)[C@@H](C)[C@@H](C[C@]3(C)C(=O)C[C@@]12O)O4`, the Activity is reported as “inactive”.

Each compound was assayed on HT-29 (assay: Cytotoxicity against human HT-29 cells assessed as cell growth inhibition at 50 uM incubated for 48 hrs by CCK-8 assay).
Type: functional, cell-based
In the case of `C=C(C)[C@H]1CC[C@@]23CO[C@@]4(O)C(=O)C(C)=CC[C@](C)(C(=O)C[C@@]12O)[C@@]34O`, the Activity is reported as “inactive”.
`C=C(C)[C@H]1[C@H](O)C[C@]2(C)[C@@]34CC(=O)[C@@H](C)[C@@H](C[C@]3(C)C(=O)C[C@@]12O)O4` was tested, and the Activity was “inactive”.
In the case of `C=C(C)[C@H]1CC[C@]2(C)[C@@]3(O)CC(=O)C(C)=CC[C@]3(C)C(=O)C[C@@]12O`, the Activity is reported as “inactive”.
`C=C(C)[C@H]1CC[C@@]23CO[C@@](O)(C[C@@]12O)[C@@]1(C)C[C@H]2O[C@]13[C@@H](O)C(=O)[C@H]2C` was tested, and the Activity was “inactive”.
In the case of `C=C(C)[C@H]1CC[C@]2(C)[C@@]34C[C@@H](O)[C@@H](C)[C@@H](C[C@]3(C)C(=O)C[C@@]12O)O4`, the Activity is reported as “inactive”.
In the case of `C=C(C)[C@H]1CC[C@]2(C)[C@@]34CC(=O)[C@@H](C)[C@@H](C[C@]3(C)C(=O)C[C@@]12O)O4`, the Activity is reported as “inactive”.

These compounds were tested on MCF7 (assay: Cytotoxicity against human MCF7 cells assessed as cell growth inhibition at 50 uM incubated for 48 hrs by CCK-8 assay).
Type: functional, cell-based
For `C=C(C)[C@H]1CC[C@@]23CO[C@@]4(O)C(=O)C(C)=CC[C@](C)(C(=O)C[C@@]12O)[C@@]34O`, the Activity was “inactive”.
For `C=C(C)[C@H]1[C@H](O)C[C@]2(C)[C@@]34CC(=O)[C@@H](C)[C@@H](C[C@]3(C)C(=O)C[C@@]12O)O4`, the Activity was “inactive”.
In the case of `C=C(C)[C@H]1CC[C@]2(C)[C@@]3(O)CC(=O)C(C)=CC[C@]3(C)C(=O)C[C@@]12O`, the Activity is reported as “inactive”.
With `C=C(C)[C@H]1CC[C@@]23CO[C@@](O)(C[C@@]12O)[C@@]1(C)C[C@H]2O[C@]13[C@@H](O)C(=O)[C@H]2C` the Activity was “inactive”.
In the case of `C=C(C)[C@H]1CC[C@]2(C)[C@@]34C[C@@H](O)[C@@H](C)[C@@H](C[C@]3(C)C(=O)C[C@@]12O)O4`, the Activity is reported as “inactive”.
In the case of `C=C(C)[C@H]1CC[C@]2(C)[C@@]34CC(=O)[C@@H](C)[C@@H](C[C@]3(C)C(=O)C[C@@]12O)O4`, the Activity is reported as “inactive”.

The compounds below were run on Escherichia coli (assay: Antimicrobial activity against Escherichia coli ATCC35218 assessed as inhibition of microbial growth at 50 uM incubated for 24 hrs by microbroth dilution assay).
Type: functional, organism-based
For `C=C(C)[C@H]1CC[C@@]23CO[C@@]4(O)C(=O)C(C)=CC[C@](C)(C(=O)C[C@@]12O)[C@@]34O`, the Activity was “inactive”.
For `C=C(C)[C@H]1[C@H](O)C[C@]2(C)[C@@]34CC(=O)[C@@H](C)[C@@H](C[C@]3(C)C(=O)C[C@@]12O)O4`, the Activity was “inactive”.
For `C=C(C)[C@H]1CC[C@]2(C)[C@@]3(O)CC(=O)C(C)=CC[C@]3(C)C(=O)C[C@@]12O`, the Activity was “inactive”.
With `C=C(C)[C@H]1CC[C@@]23CO[C@@](O)(C[C@@]12O)[C@@]1(C)C[C@H]2O[C@]13[C@@H](O)C(=O)[C@H]2C` the Activity was “inactive”.
`C=C(C)[C@H]1CC[C@]2(C)[C@@]34C[C@@H](O)[C@@H](C)[C@@H](C[C@]3(C)C(=O)C[C@@]12O)O4` was tested, and the Activity was “inactive”.
`C=C(C)[C@H]1CC[C@]2(C)[C@@]34CC(=O)[C@@H](C)[C@@H](C[C@]3(C)C(=O)C[C@@]12O)O4` was tested, and the Activity was “inactive”.

Each compound was assayed on HepG2 (assay: Cytotoxicity against human HepG2 cells assessed as cell growth inhibition at 50 uM incubated for 48 hrs by CCK-8 assay).
Type: functional, cell-based
In the case of `C=C(C)[C@H]1CC[C@@]23CO[C@@]4(O)C(=O)C(C)=CC[C@](C)(C(=O)C[C@@]12O)[C@@]34O`, the Activity is reported as “inactive”.
`C=C(C)[C@H]1[C@H](O)C[C@]2(C)[C@@]34CC(=O)[C@@H](C)[C@@H](C[C@]3(C)C(=O)C[C@@]12O)O4` was tested, and the Activity was “inactive”.
With `C=C(C)[C@H]1CC[C@]2(C)[C@@]3(O)CC(=O)C(C)=CC[C@]3(C)C(=O)C[C@@]12O` the Activity was “inactive”.
With `C=C(C)[C@H]1CC[C@@]23CO[C@@](O)(C[C@@]12O)[C@@]1(C)C[C@H]2O[C@]13[C@@H](O)C(=O)[C@H]2C` the Activity was “inactive”.
With `C=C(C)[C@H]1CC[C@]2(C)[C@@]34C[C@@H](O)[C@@H](C)[C@@H](C[C@]3(C)C(=O)C[C@@]12O)O4` the Activity was “inactive”.
`C=C(C)[C@H]1CC[C@]2(C)[C@@]34CC(=O)[C@@H](C)[C@@H](C[C@]3(C)C(=O)C[C@@]12O)O4` was tested, and the Activity was “inactive”.

The compounds below were run on HeLa (assay: Cytotoxicity against human HeLa cells assessed as cell growth inhibition at 50 uM incubated for 48 hrs by CCK-8 assay).
Type: functional, cell-based
For `C=C(C)[C@H]1CC[C@@]23CO[C@@]4(O)C(=O)C(C)=CC[C@](C)(C(=O)C[C@@]12O)[C@@]34O`, the Activity was “inactive”.
For `C=C(C)[C@H]1[C@H](O)C[C@]2(C)[C@@]34CC(=O)[C@@H](C)[C@@H](C[C@]3(C)C(=O)C[C@@]12O)O4`, the Activity was “inactive”.
For `C=C(C)[C@H]1CC[C@]2(C)[C@@]3(O)CC(=O)C(C)=CC[C@]3(C)C(=O)C[C@@]12O`, the Activity was “inactive”.
In the case of `C=C(C)[C@H]1CC[C@@]23CO[C@@](O)(C[C@@]12O)[C@@]1(C)C[C@H]2O[C@]13[C@@H](O)C(=O)[C@H]2C`, the Activity is reported as “inactive”.
With `C=C(C)[C@H]1CC[C@]2(C)[C@@]34C[C@@H](O)[C@@H](C)[C@@H](C[C@]3(C)C(=O)C[C@@]12O)O4` the Activity was “inactive”.
With `C=C(C)[C@H]1CC[C@]2(C)[C@@]34CC(=O)[C@@H](C)[C@@H](C[C@]3(C)C(=O)C[C@@]12O)O4` the Activity was “inactive”.

Reference: ChEMBL document CHEMBL6127113, “Penicamins A-L, Polyoxygenated Diterpenes from Penicillium camemberti JSB-7212” (J Nat Prod, 2024)
